# Measured values as given in patent US20050176733A1, “Chk-1 inhibitors” (Millennium Pharmaceuticals, Inc., priority 2004, published 2005).
# Biological target: T1, Recombinant human Chk-1 (GST-Chk-1) (Homo sapiens, UniProt O14757)
# T1 construct: made in house; host or cells: insect cells (baculovirus, Bac-to-Bac expression system)
# T1 sequence (O14757 1-476): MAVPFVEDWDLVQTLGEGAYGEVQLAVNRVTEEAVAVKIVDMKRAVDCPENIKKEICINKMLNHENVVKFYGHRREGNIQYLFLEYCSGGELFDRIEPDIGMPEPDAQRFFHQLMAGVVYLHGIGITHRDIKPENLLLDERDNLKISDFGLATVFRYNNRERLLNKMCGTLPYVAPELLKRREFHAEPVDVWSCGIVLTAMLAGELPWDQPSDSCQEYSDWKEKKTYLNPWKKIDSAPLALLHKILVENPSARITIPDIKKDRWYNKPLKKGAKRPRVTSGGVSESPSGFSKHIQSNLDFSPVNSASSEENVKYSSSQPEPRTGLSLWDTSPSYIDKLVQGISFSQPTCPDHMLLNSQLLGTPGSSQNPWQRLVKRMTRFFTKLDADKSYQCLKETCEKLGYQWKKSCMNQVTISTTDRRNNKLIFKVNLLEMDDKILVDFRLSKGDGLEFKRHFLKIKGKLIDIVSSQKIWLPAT
# Experiment: Chk-1 FlashPlate Kinase Assay
# Assay type: biochemical
# Settings: for inhibition at 1 µM: at a concentration of 1.0 μM; for inhibition at 10 µM: at a concentration of 10 μM, read-out: inhibition of Chk-1 (Chk-1 induced 33P incorporation)
# Protocol: Recombinant human Chk-1 was expressed as a fusion protein with glutathione S-transferase at the amino-terminus (GST-Chk-1) using standard baculovirus vectors and (Bac-to-Bac®) insect cell expression system purchased from GIBCO™ Invitrogen.
# Recombinant protein expressed in insect cells was purified using glutathione sepharose (Amersham Biotech) using standard procedures described by the manufacturer.
# Assays (25 μL) contained 8.7 nM GST-Chk-1, 10 mM MES, 0.1 mM ethylene glycol-bis(β-aminoethylether)-N,N,N′,N′-tetraacetic acid (EGTA, pH 8.0), 2 mM DTT, 0.05% Tween 20, 3 μM peptide substrate (Biotin-ILSRRPSYRKILND-free acid) (SEQ ID NO: 1), 1 μM ATP, 0.4 μCi ^33P-γ-ATP (NEN), 4% DMSO. Reactions were incubated for 30 minutes at room temperature, terminated with 50 μL of 50 mM EDTA and […] were transferred to streptavidin-coated FlashPlates® (NEN) and incubated for 1 hour at room temperature. Plates were washed with phosphate buffered saline containing 0.01% Tween-20 and 10 mM sodium pyrophosphate. Plates were dried, sealed with Topseal™ (NEN) and amount of ^33P incorporated into the peptide substrate measure using a Packard Topcount® NXT™ scintillation counter with standard settings.
SMILES,inhibition at 1 µM,inhibition at 10 µM
"Cc1cnc(NC(=O)Nc2cc(Cl)ccc2OCCCNC(=O)CN(C)C)cn1 [Compound I-4, N-(3-{4-Chloro-2-[3-(5-methyl-pyrazin-2-yl)-ureido]-phenoxy}-propyl)-2-dimethylamino-acetamide]",≥ 50%,≥ 50%
"N#Cc1ccc(NC(=O)Nc2cc(Cl)ccc2OCCCC(=O)N2CCOCC2)nc1 [Compound I-110, 1-[5-Chloro-2-(4-morpholin-4-yl-4-oxo-butoxy)-phenyl]-3-(5-cyano-pyridin-2-yl)-urea]",,≥ 50%
"CN1CCN(C(=O)CCCOc2ccc(Cl)cc2NC(=O)Nc2ccc(C#N)cn2)CC1 [Compound I-14, 1-{5-Chloro-2-[4-(4-methyl-piperazin-1-yl)-4-oxo-butoxy]-phenyl}-3-(5-cyano-pyridin-2-yl)-urea]",≥ 50%,≥ 50%
"NC(=O)c1ccc(NC(=O)Nc2cc(Cl)ccc2OCCCNC(=O)[C@@H](N)Cc2ccc(Cl)cc2)nc1 [Compound I-2, 6-[3-(2-{3-[2-Amino-3-(4-chloro-phenyl)-propionylamino]-propoxy}-5-chloro-phenyl)-ureido]-nicotinamide]",≥ 50%,≥ 50%
"Cc1cnc(NC(=O)Nc2cc(Cl)ccc2OCCCNC(=O)N2CCOCC2)cn1 [Compound I-5, Morpholine-4-carboxylic acid (3-{4-chloro-2-[3-(5-methyl-pyrazin-2-yl)-ureido]-phenoxy}-propyl)-amide]",≥ 50%,≥ 50%
"Cc1cnc(NC(=O)Nc2ccc(N3CCCC3)cc2OCCCNC(=O)CN(C)C)cn1 [Compound I-11, 2-Dimethylamino-N-(3-{2-[3-(5-methyl-pyrazin-2-yl)-ureido]-5-pyrrolidin-1-yl-phenoxy}-propyl)-acetamide]",≥ 50%,≥ 50%
"N#Cc1ccc(NC(=O)Nc2cc(Cl)ccc2OCCCNC(=O)N2CCOCC2)nc1 [Compound I-12, Morpholine-4-carboxylic acid (3-{4-chloro-2-[3-(5-cyano-pyridin-2-yl)-ureido]-phenoxy}-propyl)-amide]",≥ 50%,≥ 50%
"Cc1cnc(NC(=O)Nc2ccc(N3CCCC3)cc2OCCCNC(=O)c2ccc(Cl)cc2)cn1 [Compound I-10, 4-Chloro-N-(3-{2-[3-(5-methyl-pyrazin-2-yl)-ureido]-5-pyrrolidin-1-yl-phenoxy}-propyl)-benzamide]",,≥ 50%
"Cc1cnc(NC(=O)Nc2cc(Cl)ccc2OCCCNC(=O)CN2CCN(C)CC2)cn1 [Compound I-7, N-(3-{4-Chloro-2-[3-(5-methyl-pyrazin-2-yl)-ureido]-phenoxy}-propyl)-2-(4-methyl-piperazin-1-yl)-acetamide]",≥ 50%,≥ 50%
"Cc1cnc(NC(=O)Nc2cc(C(=O)NCCN(C)C)ccc2OCCCNC(=O)c2ccc(Cl)cc2)cn1 [Compound I-9, 4-[3-(4-Chloro-benzoylamino)-propoxy]-N-(2-dimethylamino-ethyl)-3-[3-(5-methyl-pyrazin-2-yl)-ureido]-benzamide]",≥ 50%,≥ 50%
"Cc1cnc(NC(=O)Nc2cc(Cl)ccc2OCCCNC(=O)CN2CCOCC2)cn1 [Compound I-6, N-(3-{4-Chloro-2-[3-(5-methyl-pyrazin-2-yl)-ureido]-phenoxy}-propyl)-2-morpholin-4-yl-acetamide]",≥ 50%,≥ 50%
"Cc1cnc(NC(=O)Nc2cc(Cl)ccc2OCC(=O)N2CCOCC2)cn1 [Compound I-8, 1-[5-Chloro-2-(2-morpholin-4-yl-2-oxo-ethoxy)-phenyl]-3-(5-methyl-pyrazin-2-yl)-urea]",≥ 50%,≥ 50%
"Cc1cnc(NC(=O)Nc2ccc(N3CCN(C)CC3)cc2OCCCNC(=O)c2ccc(Cl)cc2)cn1 [Compound I-13, 4-Chloro-N-(3-{5-(4-methyl-piperazin-1-yl)-2-[3-(5-methyl-pyrazin-2-yl)-ureido]-phenoxy}-propyl)-benzamide]",≥ 50%,≥ 50%

# Second part, the molecule after the results:
inhibition at 1 µM,inhibition at 10 µM,SMILES
≥ 50%,≥ 50%,"Cc1cnc(NC(=O)Nc2cc(Cl)ccc2OCCCNC(=O)C(N)c2ccc(Cl)cc2)cn1 (centres unmarked) [Compound I-111, 2-Amino-N-(3-{4-chloro-2-[3-(5-methyl-pyrazin-2-yl)-ureido]-phenoxy}-propyl)-2-(4-chloro-phenyl)-acetamide]"
≥ 50%,≥ 50%,"CN1CCN(C(=O)NCCCOc2ccc(Cl)cc2NC(=O)Nc2ccc(C#N)cn2)CC1 [Compound I-18, 4-Methyl-piperazine-1-carboxylic acid (3-{4-chloro-2-[3-(5-cyano-pyridin-2-yl)-ureido]-phenoxy}-propyl)-amide]"
≥ 50%,≥ 50%,"Cc1cnc(NC(=O)Nc2cc(Cl)ccc2OCCCNC(=O)c2ccc(N(C)C)cc2)cn1 [Compound I-15, N-(3-{4-Chloro-2-[3-(5-methyl-pyrazin-2-yl)-ureido]-phenoxy}-propyl)-4-dimethylamino-benzaminde]"
≥ 50%,≥ 50%,"Cc1cnc(NC(=O)Nc2cc(Cl)ccc2OCCCNC(=O)[C@@H](N)Cc2ccc(Cl)cc2)cn1 [Compound I-16, 2-Amino-N-(3-{4-chloro-2-[3-(5-methyl-pyrazin-2-yl)-ureido]-phenoxy}-propyl)-3-(4-chloro-phenyl)-propionamide]"
,≥ 50%,"Cc1cnc(NC(=O)Nc2cc(C(=O)N3CCN(C)CC3)ccc2OCCCNC(=O)c2ccc(Cl)cc2)cn1 [Compound I-20, 4-Chloro-N-(3-{4-(4-methyl-piperazine-1-carbonyl)-2-[3-(5-methyl-pyrazin-2-yl)-ureido]-phenoxy}-propyl)-benzamide]"
≥ 50%,≥ 50%,"CN(C)CC(=O)NCCCOc1ccc(Cl)cc1NC(=O)Nc1ccc(C#N)cn1 [Compound I-39, N-(3-{4-Chloro-2-[3-(5-cyano-pyridin-2-yl)-ureido]-phenoxy}-propyl)-2-dimethylamino-acetamide]"
